Like-named read-outs stand apart in the source and are kept apart here.
Tests used:
aureolysin (ALN) = target: T1, aureolysin (ALN) (Staphylococcus aureus, UniProt P81177); test: ALN inhibition, continuous initial rate assay with McaRPPGFSAFK(Dnp)-OH after 15 min preincubation; type: biochemical; conditions: for inhibition at 100 µM: read-out: inhibition (reduction of activity) of ALN, 100 μM compound, 15 min preincubation at 37 °C, 4 μM substrate
T1 construct: purchased BioCentrum Ltd (Kraków, Poland)
Method: (§1) The inhibitorial power of 100 μM of the eight catechol containing compounds was tested against the two human metalloproteases MMP-9(T) and MMP-14 and the three bacterial metalloproteases ALN, PLN and TLN (Figure 1). In order to detect putative slow and slow-tight binding, the catechol derivatives were first incubated along with the enzyme for 15 min at 37 °C. In controls without inhibitor present, enzymes and buffer were preincubated under identical conditions. Thereafter, the enzyme reaction was started by adding the relevant […] substrate and the rate was followed continuously for 30 min. […] The activity was reduced with more than 50%, by MT336 for the two MMPs, by BF482 for MMP-9(T) and by ML33 for ALN (Figure 1). In all other inhibitory studies with catechol containing compounds, the activity was reduced between 0 and 45%.
(§2) To assure that this is correct, the inhibitors BF471 and BF489 were tested against varying McaRPPGFSAFK(Dnp)-OH using TLN as described in the Experimental section. […] It should be noted that the reaction was started by adding the enzyme to the substrate-inhibitor mixtures. In the case of slow binding, the full potential of these inhibitors would not be realised by this inhibitory assay. When the activity was reduced by more than […], experiments were performed with varying concentrations of the catechol derivatives. IC50 values were obtained from dose response plots, and Ki values were determined from the IC50 values based on substrate competitive inhibition. By the use of Ki values, we can compare the binding strength of the compounds for the different enzymes and not only comparing the compounds ability to bind one enzyme. There are several possible explanations for the deviation in determined Ki value of BF471 and BF489 for TLN from the dose response plots and the double inverse plots.
(§3) The various inhibitors were dissolved in 100% DMSO giving an inhibitor concentration of 10 mM. All the inhibitory and control experiments contained a total and fixed concentration of 1.0% DMSO. […] The fixed enzyme concentration were as follows; 0.28 nM MMP-9(T), 0.05 nM MMP-9(A), 1.0 nM MMP-14, 1.4 nM ALN, 0.5 nM PLN and 0.21 nM TLN. Enzymes with and without inhibitors were pre-incubated for 15 min at 37 °C, the initial rate assays were started by adding the substrate and the reaction was followed for 30 min. Assays were performed using a Spectra Max Gemini EM micro-plate reader (Molecular Devices) or a Clario Star micro plate reader (CLARIOstar® BMG LABTECH). Assays were performed at 37 °C, using an excitation wavelength of 320 nm and an emission wavelength of 405 nm with a slit width of 10 nm. The IC50 values were calculated either in Sigma Plot (Enzyme kinetics 1.3 module) or in Graph Pad Prism 5 using Equations (1) or (2) depending on the concentration span of the used inhibitor: (1) vi/v0= 1/(1+ 10^(pIC50−pI)) (2) vi/v0= 1/(1+ [I]/IC50) where vi is the enzyme activity in the presence of inhibitor, v0 the activity in the absence of inhibitor, pI=−log [Inhibitor] in M and pIC50 = −log IC50 in M. All experiments were performed in at least triplicate.

[1] = target: T2, Human MT1-MMP/MMP-14 (catalytic domain) (Homo sapiens, UniProt P50281); test: MMP-14 inhibition, continuous initial rate assay with McaPLGL(Dpa)AR-NH2 after 15 min preincubation; type: biochemical; conditions: for inhibition at 100 µM: 100 μM compound, 15 min preincubation at 37 °C, 4 μM substrate, read-out: inhibition (reduction of activity) of MMP-14; for Ki: substrate McaPLGL(Dpa)AR-NH2 4 µM, 4–6 experiments, read-out: Ki ± sd MMP-14
T2 construct: Human MT1-MMP/MMP-14 (catalytic domain); purchased Calbiochem (San Diego, CA, USA)
Method: as §1, §2, §3

[2] = target: T3, trypsin-activated MMP-9 from THP-1 cells (MMP-9(T)) (Homo sapiens, UniProt P14780); test: MMP-9(T) inhibition, continuous initial rate assay with McaPLGL(Dpa)AR-NH2 after 15 min preincubation; type: biochemical; conditions: for inhibition at 100 µM: read-out: inhibition (reduction of activity) of MMP-9(T); for Ki: substrate McaPLGL(Dpa)AR-NH2 4 µM, 4–6 experiments, read-out: Ki ± sd MMP-9(T)
T3 construct: endogenous in cells; host or cells: THP-1 cells stimulated with PMA
Method: as §1, §2
The purified proMMP-9 was activated by trypsin, by mixing approximately 300 µg of proMMP-9 with trypsin (31 μg/ml) for 10 min at 37 °C in 0.1 M Hepes pH 7.5, 0.005% Brij35% and 10 mM CaCl2. The activation and processing of MMP-9 were terminated by adding a 50 times excess of SBTI (2.7 mg/ml) in relation to trypsin and after 10 min incubation at room temperature, the mixture was transferred and kept on ice during the kinetic and inhibition kinetic measurements. After activation, the activity was determined with 10 µM of McaPLGL(Dpa)AR-NH2 in 0.1 M Hepes pH 7.5, 0.005% Brij35% and 10 mM CaCl2 in a total assay volume of 100 µL, at 37 °C. Initial rates were measured at an excitation wavelength of 320 nm and an emission wavelength of 405 nm with a slit width of 10 nm using a Perkin Elmer LS 50 Luminescence spectrometer and the FL WinLab Software Package (Perkin Elmer). The amount of active MMP-9 was determined by active site titration using galardin as described previously.
The various inhibitors were dissolved in 100% DMSO giving an inhibitor concentration of 10 mM. All the inhibitory and control experiments contained a total and fixed concentration of 1.0% DMSO. […] The fixed enzyme concentration were as follows; 0.28 nM MMP-9(T), 0.05 nM MMP-9(A), 1.0 nM MMP-14, 1.4 nM ALN, 0.5 nM PLN and 0.21 nM TLN. Enzymes with and without inhibitors were pre-incubated for 15 min at 37 °C, the initial rate assays were started by adding the substrate and the reaction was followed for 30 min. Assays were performed using a Spectra Max Gemini EM micro-plate reader (Molecular Devices) or a Clario Star micro plate reader (CLARIOstar® BMG LABTECH). Assays were performed at 37 °C, using an excitation wavelength of 320 nm and an emission wavelength of 405 nm with a slit width of 10 nm. […]

[3] = tested on: COc1ccc2c(CC(=O)N[C@@H](CCCNC(=N)N)C(=O)N3CCC[C@H]3C(=O)N3CCC[C@H]3C(=O)NCC(=O)N[C@@H](Cc3ccccc3)C(=O)N[C@@H](CO)C(=O)N[C@@H](C)C(=O)N[C@@H](Cc3ccccc3)C(=O)N[C@@H](CCCCNc3ccc([N+](=O)[O-])cc3[N+](=O)[O-])C(=O)O)cc(=O)oc2c1; test: purified protein, by the assay type; conditions: other: 1% DMSO; regarded as uncertain, highest substrate concentration 10 µM; pH 7.5
Method: For TLN, the Km value was also determined with a DMSO concentration of 2%.
Km values were determined for McaPLGL(Dpa)AR-NH2 with APMA-activated recombinant MMP-9 (rMMP-9(A)), trypsin-activated MMP-9 from THP-1 cells (MMP-9(T)) and MMP-14, and for Mca[sequence](Dnp)-OH with ALN, PLN and TLN. Substrate concentrations used were 1–10 µM in a total volume of 100 µL of 0.1 M Hepes pH 7.5 containing 10 mM CaCl2, 0.005% Brij-35 and 1.0% DMSO. […] Initial rate experiments were performed as described above for the determination of enzyme activity of MMP-9 during activation and the same excitation and emission wavelengths were used for both substrates.

thermolysin (TLN) = target: T4, thermolysin (TLN) (Bacillus thermoproteolyticus, UniProt P00800); test: TLN inhibition, continuous initial rate assay with McaRPPGFSAFK(Dnp)-OH after 15 min preincubation; type: biochemical; conditions: for Ki: substrate McaRPPGFSAFK(Dnp)-OH 4 µM, 4–6 experiments, read-out: Ki ± sd TLN; for inhibition at 100 µM: 100 μM compound, 15 min preincubation at 37 °C, 4 μM substrate, read-out: inhibition (reduction of activity) of TLN
T4 construct: purchased Calbiochem (San Diego, CA, USA)
Method: as §1, §2, §3

pseudolysin (PLN) = target: T5, pseudolysin (PLN) (Pseudomonas aeruginosa, UniProt P14756); test: PLN inhibition, continuous initial rate assay with McaRPPGFSAFK(Dnp)-OH after 15 min preincubation; type: biochemical; conditions: for inhibition at 100 µM: read-out: inhibition (reduction of activity) of PLN
T5 construct: purchased Calbiochem (San Diego, CA, USA)
Method: as §1, §2, §3

TLN = target: T6, TLN (Bacillus thermoproteolyticus, UniProt P00800); test: TLN inhibition against varying McaRPPGFSAFK(Dnp)-OH, reaction started by adding enzyme (double inverse plots); type: biochemical; conditions: no preincubation, read-out: Ki TLN from varying substrate
T6 construct: purchased Calbiochem (San Diego, CA, USA)
Method: as §2

[4] = target: APMA-activated recombinant MMP-9 (rMMP-9(A)) (Homo sapiens, UniProt P14780); test: rMMP-9(A) inhibition in Tris-HCl buffer with varied preincubation time, followed continuously for 3 h; type: biochemical; conditions: 100 µM, 0.1 M Tris-HCl pH 7.5, N = 4
From the text: Except for ML33, all catechol derivatives have previously been tested for binding to MMP-2, MMP-8 and MMP-9[60]. […] The Ki values for MMP-9 in the present study were higher than the IC50 values in the previous study, the exception was MT336 for which we obtained a lower value. It is not easy to point out a single factor in the experiments contributing to deviations between the studies. Both studies used a pH of 7.5 but the buffer compositions were slightly different. […] Tauro et al.[60] used a commercial active MMP-9 produced in E-coli that only contained the catalytic domain and the fibronectin-like (FnII) module. […] A factor that may contribute to differences is that after preincubation of MMP-9 with catechol derivatives and adding of the substrate for starting the reaction, we followed the reaction continuously for 30 min, while Tauro et al.[60] used an endpoint assay allowing the reaction to proceed for 2 to 4 h before the fluorescence was measured. We did some tests to determine if some of these differences could affect the binding results. In the test experiments, we used rMMP-9(A) which differs from the MMP-9(T) by a slightly different N-terminal and a largely truncated C-terminal HPX domain[57]. One hundred µM of BF466 was tested where the 0.1 M Hepes buffer pH 7.5 was exchanged to a 0.1 M Tris-HCl buffer pH 7.5. The rMMP-9(A) was preincubated with BF466 for 0, 15 and 30 min at 37 °C and the reaction was started by the addition of the substrate McaPLGL(Dpa)AR-NH2 (4 µM in the assay) following the reaction continuously for 3 h. The controls without BF466 were treated identically. […] The reaction was allowed to proceed for 4 h, and the reaction was stopped by addition of EDTA (end concentration 10 mM) and the relative fluorescence intensity determined.
The expression and purification of recombinant human full-length proMMP-9 (rpMMP-9) from Sf9 insect cells were performed as described previously. […] The amount of active MMP-9 was determined by active site titration using galardin also described previously.

[5] = catechol compounds, Ki from IC50, substrate competitive
[6] = 100 μM compound, 15 min preincubation at 37 °C, 4 μM substrate

APMA-activated recombinant MMP-9 (rMMP-9(A)), sequence (P14780 107-444 limits assumed): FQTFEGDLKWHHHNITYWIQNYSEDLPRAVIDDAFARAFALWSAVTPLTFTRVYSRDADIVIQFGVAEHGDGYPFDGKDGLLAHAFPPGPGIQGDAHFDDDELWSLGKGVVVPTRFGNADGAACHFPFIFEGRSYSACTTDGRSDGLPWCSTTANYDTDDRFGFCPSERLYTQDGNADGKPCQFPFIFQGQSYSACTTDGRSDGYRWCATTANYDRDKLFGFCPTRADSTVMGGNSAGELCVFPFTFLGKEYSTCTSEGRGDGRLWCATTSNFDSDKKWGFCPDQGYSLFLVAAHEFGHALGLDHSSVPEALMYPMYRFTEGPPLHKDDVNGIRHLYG
T3 sequence (P14780 107-707 limits assumed): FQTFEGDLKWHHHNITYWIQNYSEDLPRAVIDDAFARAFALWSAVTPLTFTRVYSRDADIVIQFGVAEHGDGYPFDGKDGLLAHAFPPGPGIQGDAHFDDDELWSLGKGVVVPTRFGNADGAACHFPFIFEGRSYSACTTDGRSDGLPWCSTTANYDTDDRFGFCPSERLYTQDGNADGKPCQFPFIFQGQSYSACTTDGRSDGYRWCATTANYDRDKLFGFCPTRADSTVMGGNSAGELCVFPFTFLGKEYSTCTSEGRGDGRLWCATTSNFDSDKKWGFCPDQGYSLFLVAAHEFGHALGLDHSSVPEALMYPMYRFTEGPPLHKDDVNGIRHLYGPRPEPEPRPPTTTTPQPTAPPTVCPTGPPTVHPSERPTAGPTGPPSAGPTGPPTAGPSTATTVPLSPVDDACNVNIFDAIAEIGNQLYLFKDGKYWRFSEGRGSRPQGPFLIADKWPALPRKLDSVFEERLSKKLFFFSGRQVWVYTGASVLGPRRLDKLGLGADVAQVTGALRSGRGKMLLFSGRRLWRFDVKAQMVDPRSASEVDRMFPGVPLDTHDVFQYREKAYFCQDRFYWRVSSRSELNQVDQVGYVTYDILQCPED
T1 sequence (P81177 209-509): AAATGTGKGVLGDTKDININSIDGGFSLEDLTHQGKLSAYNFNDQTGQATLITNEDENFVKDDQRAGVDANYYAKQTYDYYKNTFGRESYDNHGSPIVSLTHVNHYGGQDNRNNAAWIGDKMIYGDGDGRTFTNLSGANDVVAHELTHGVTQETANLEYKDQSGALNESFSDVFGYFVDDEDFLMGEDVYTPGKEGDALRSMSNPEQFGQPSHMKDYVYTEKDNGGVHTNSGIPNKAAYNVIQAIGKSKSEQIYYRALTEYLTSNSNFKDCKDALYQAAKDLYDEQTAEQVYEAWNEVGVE
T5 sequence (P14756 198-498): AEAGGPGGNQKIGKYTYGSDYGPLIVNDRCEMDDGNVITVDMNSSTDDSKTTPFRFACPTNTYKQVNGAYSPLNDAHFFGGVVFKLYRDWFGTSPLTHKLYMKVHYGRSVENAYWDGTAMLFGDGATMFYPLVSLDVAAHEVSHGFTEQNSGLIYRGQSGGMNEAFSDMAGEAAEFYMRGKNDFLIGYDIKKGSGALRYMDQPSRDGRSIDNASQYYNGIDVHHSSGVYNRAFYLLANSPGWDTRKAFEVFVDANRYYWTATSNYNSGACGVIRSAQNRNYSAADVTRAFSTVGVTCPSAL
T4 sequence (P00800 233-548): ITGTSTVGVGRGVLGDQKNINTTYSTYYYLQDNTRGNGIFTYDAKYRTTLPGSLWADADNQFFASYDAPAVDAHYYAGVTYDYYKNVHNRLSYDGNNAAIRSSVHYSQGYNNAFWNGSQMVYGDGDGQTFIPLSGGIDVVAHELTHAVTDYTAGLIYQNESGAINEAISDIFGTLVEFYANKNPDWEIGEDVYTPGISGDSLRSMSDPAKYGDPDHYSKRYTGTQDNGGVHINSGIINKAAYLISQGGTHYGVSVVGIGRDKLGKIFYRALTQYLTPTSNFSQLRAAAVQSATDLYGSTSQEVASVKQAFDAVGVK
T6 sequence (P00800 233-548): as above

| Compound | inhibition at 100 µM (aureolysin (ALN)) [%] | inhibition at 100 µM [1] [%] | inhibition at 100 µM [2, 6] [%] | Ki [2, 5] [µM] | Ki (pseudolysin (PLN)) [µM] | also measured |
| --- | --- | --- | --- | --- | --- | --- |
| COc1ccc(S(=O)(=O)Nc2cccc(O)c2O)cc1 [ML33] | > 50 |  |  |  |  |  |
| O=C(NCc1ccc(-c2ccccc2)cc1)c1cccc(O)c1O [MT336] |  | > 50 | > 50 | 13 ± 1 |  | Ki [1, 5]: 12 ± 1 µM |
| ALN (Staphylococcus aureus) |  |  |  |  |  | Km [3]: 76 ± 7 µM |
| O=[N+]([O-])c1ccc(S(=O)(=O)NC(P(=O)(O)O)P(=O)(O)O)cc1 [RC2] |  |  |  |  | 22 ± 3 | Ki (thermolysin (TLN); bisphosphonates): 16.2 ± 0.4 µM |
| O=S(=O)(NCc1ccc(O)c(O)c1)c1ccc(Br)cc1 [BF486] |  |  |  |  |  | inhibition (reduction of activity) of MMP-9(T) [2, 6]: did not affect |
| O=S(=O)(NCc1cccc(O)c1O)c1ccc(Br)cc1 [BF482] |  |  | > 50 |  |  | inhibition (reduction of activity) of PLN (pseudolysin (PLN); [6]): did not affect |
| O=S(=O)(Nc1ccc(O)c(O)c1)c1ccc(-c2ccccc2)cc1 [BF471] | > 50 | > 50 | > 50 | 13 ± 2 | 9 ± 3 | Ki (TLN): 57 ± 6 µM; Ki (aureolysin (ALN)): 49 ± 5 µM; inhibition at 100 µM (thermolysin (TLN)): > 50%; Ki (thermolysin (TLN); [5]): 13 ± 2 µM; inhibition at 100 µM (pseudolysin (PLN)): > 50% |
| O=S(=O)(Nc1cccc(O)c1O)c1ccc(-c2ccccc2)cc1 [ML32] | > 50 | > 50 | > 50 | 51 ± 17 | 38 ± 8 | Ki [1, 5]: 19 ± 0.8 µM; inhibition at 100 µM (pseudolysin (PLN)): > 50% |
| O=P(O)(O)C(Nc1ccc(Cl)cc1)P(=O)(O)O [ML45] |  |  |  |  | 37 ± 6 | Ki ([1]; bisphosphonates): 17 ± 1 µM |
| COc1ccc(S(=O)(=O)NC(P(=O)(O)O)P(=O)(O)O)cc1 [LS4] |  |  |  |  | 58 ± 4 |  |
| O=P(O)(O)C(Nc1ccc(-c2ccccc2)cc1)P(=O)(O)O [MT363] |  |  |  |  | 12 ± 4 | Ki ([1]; bisphosphonates): 7.2 ± 0.6 µM; Ki (thermolysin (TLN); bisphosphonates): 7 ± 1 µM; Ki ([2]; bisphosphonates): 6.6 ± 0.4 µM |
| O=S(=O)(Nc1ccc(O)c(O)c1)c1ccc(Br)cc1 [BF489] | > 50 | > 50 | > 50 | 12.6 ± 0.6 | 16 ± 3 | Ki [1, 5]: 8.3 ± 0.6 µM; Ki (TLN): 73 ± 11 µM; inhibition at 100 µM (thermolysin (TLN)): > 50%; Ki (thermolysin (TLN); [5]): 14 ± 5 µM; inhibition at 100 µM (pseudolysin (PLN)): > 50% |
| O=S(=O)(NCc1cccc(O)c1O)c1ccc(-c2ccccc2)cc1 [BF466] |  |  |  |  |  | vi/v0 rMMP-9(A) ([4]; preincubation 0 min at 37 °C): 0.74 ± 0.04; vi/v0 rMMP-9(A) ([4]; preincubation 15 min at 37 °C): 0.68 ± 0.02; vi/v0 rMMP-9(A) ([4]; preincubation 30 min at 37 °C): 0.73 ± 0.05 |

Source: publication PMC7993378, “Inhibition of bacterial and human zinc-metalloproteases by bisphosphonate- and catechol-containing compounds” (Journal of Enzyme Inhibition and Medicinal Chemistry, 2021)
